One compound from US9968617B2, “Local topical administration formulations containing indoxacarb” (E.I. du Pont de Nemours and Company, priority 2006, dated 2018) can be followed below.

Values joined by “and” are separate entries in the source; they are usually repeats but may differ in a detail not shown here. Identical values can stand only once. Bounds are passed on as bounds.

In assay [1] the test system is fleas (Ctenocephalides felis). Put plainly: Dose response study on canines against fleas, Indoxacarb spot-on (Example 1). Particulars: for reduction of flea infestation: dogs. Format: in vivo. Here is the method: A non-blinded prospective longitudinal artificial infestation parasite efficacy pen study was conducted with a fully randomized design (ranking and blocking based on breed and pre-treatment flea count). There were 5 treatment groups of 6 dogs each, and an untreated control group.
Thirty-three (33) adult dogs (Labrador Retrievers and Jack Russell Terriers) were inducted, clinically examined, weighed, identified and allocated to study pens on Day −7. Each dog was artificially infested with 100 fleas (Ctenocephalides felis) on Day −5 and again on Day −2. On Day −1 flea thumb counts were performed on all dogs and 30 dogs were selected for inclusion. These dogs were randomly allocated to 5 similar groups of 6 animals on the basis of breed and flea counts, and groups were allocated to study pens. On Day 0, Groups B, C, D and E were treated with a local topical administration formulation containing Indoxacarb (DPX-K128) dissolved in a mixture of Dimethyl Isosorbide (DMI) and Propylene Glycol Monomethyl Ether (90% Dimethyl Isosorbide (DMI) and 10% Propylene Glycol Monomethyl Ether by volume) to form a total concentration of 75, 100, 125 or 150 g/L of Indoxacarb (DPX-K128). The starting material to prepare the formulation was a mixture of DPX-K128-and DPX-KN127 (the R-isomer of Formula 1) and contained 70.43% Indoxacarb (DPX-K128). […] The formulation was administered via spot-on application (i.e. applying in liquid form to less than or equal to 10% of the surface area of the animal) to the dorsal midline at the rate of 0.1 mL/1 kg. Group A remained untreated as controls. Group B was dosed at the rate of 7.5 mg/kg; Group C at the rate of 10.0 mg/kg; Group D at the rate of 12.5 mg/kg; and Group E at the rate of 15.0 mg/kg.
Flea thumb counts were performed at 24 hours. Flea comb counts were performed at 48 hours post-treatment and all dogs then treated with Capstar® oral tablets (Nitenpyram, Novartis Animal Health) to remove all fleas prior to the next infestation. Animals were re-infested with 100 adult fleas at 7, 14, 21 and 28 days post-treatment. At 24 hours after each infestation, flea comb counts were performed followed by Capstar treatment.

The subject of a further assay is fleas. Kind of assay: Effect of washing on persistency, flea comb count on dogs (Example 2). Particulars: for Group Average Count: Day 44; for Flea Count: individual dog, Day 44, infested with 100 fleas Day 43. Format: in vivo, Ctenocephalides felis. On the procedure:
At completion of the study described in Experiment 1 above, a further washing study was conducted using the six dogs in Group E for a further two weeks.
During the two-week period, four of the six dogs from Group E were washed twice weekly in a non-insecticidal hydrobath, while the other two dogs from Group E were not washed and acted as controls. On Day 43 post-treatment, the 6 dogs were infested with 100 fleas and then had their ability to retain a flea infestation assessed on Day 44 by a flea comb count.

In the case of `COC(=O)N(C(=O)N1CO[C@@]2(C(=O)OC)Cc3cc(Cl)ccc3C2=N1)c1ccc(OC(F)(F)F)cc1` [Indoxacarb, (S)-methyl 7-chloro-2,5-dihydro-2-[[(methoxycarbonyl)[4-(trifluoromethoxy)phenyl]amino]carbonyl]indeno[1,2-e][1,3,4]oxadiazine-4a(3H)-carboxylate], the “persistent efficacy, reduction” value in assay [1] (all four groups (7.5-15.0 mg/kg), from the 48 hour count until 29 days post-treatment) is recorded as no less than 99%. The “reduction of flea infestation” value was 97.9% in assay [1] (spot-on 7.5 mg/kg (Group B), 24 hrs post-treatment); 99.4% in assay [1] (spot-on 7.5 mg/kg (Group B), 48 hrs post-treatment); 97.9% in assay [1] (spot-on 10.0 mg/kg (Group C), 24 hrs post-treatment); 100% in assay [1] (spot-on 10.0 mg/kg (Group C), 48 hrs post-treatment); 99.0% in assay [1] (spot-on 12.5 mg/kg (Group D), 24 hrs post-treatment); 100% in assay [1] (spot-on 12.5 mg/kg (Group D), 48 hrs post-treatment). The “reduction of flea infestation” value in assay [1] (spot-on 15.0 mg/kg (Group E), 24 hrs post-treatment) was determined as 100%; in assay [1] (spot-on 15.0 mg/kg (Group E), 48 hrs post-treatment) it was 99.4%. In addition, in the assay on fleas (44 days, after 4 shampoo hydrobath washes), the persistence after washing entry is “excellent persistence”. Moreover, the figures for the “Group Average Count” value in the assay with fleas (Treated Non-Wash) and in the assay with fleas (Treated Wash) were 0 and 3, respectively. Moreover, the “Flea Count” value in the assay with fleas (Treated Non-Wash (15.0 mg/kg)) is 0; in the assay on fleas (Treated Wash (15.0 mg/kg, washed twice weekly for two weeks)) it was 4 and 5 and 1 and 2.
